Results as given in patent US5635458A, “Water-based drilling fluids for reduction of water adsorption and hydration of argillaceous rocks” (M-I Drilling Fluids, L.L.C., priority 1995, dated 1997).

Tests used:
[1] = Swelling test, Louisiana gumbo shale; details: gumbo shale pellets
Description: The swelling inhibition effects of drilling fluids of this invention on water-sensitive shales have been evaluated by performing swelling tests using a Computer-Aided Swellmeter developed by M-I Drilling Fluids L.L.C. This device is described in, Lee, John, "Swellmeter Analysis," M-I® TECH-NEWS, November 1989. Pellets with 1 inch diameter, prepared by compressing pulverized water-sensitive shales under controlled loads, are placed in specially designed holders and allowed to be in direct contact with test fluids. The pellets are allowed to adsorb test fluids and swell for a period of time ranging from about 60 to 120 hours in the test fluids. Volume expansions of the pellets are recorded by using liner variable differential transformers. The volume expansions of the pellets and slopes of the swelling curves at the end of the test are used to evaluate the water adsorption and swelling inhibition of the test fluids.
The swelling tests were performed according to the test procedures given above. The argillaceous rock used for the tests was a "gumbo shale" obtained from offshore Louisiana. The gumbo shale was pulverized and pressed into 1 inch diameter pellets under 10,000 pounds of force for 5 minutes. The volume expansions of the pellets and the swelling rates calculated from swelling data obtained between 55 and 60 hours of the test are shown in Table 2. […]

[2] = cited from earlier work; for single-dose oral LD50: from Patty's Industrial Hygiene and Toxicology, 1978; for toxicity ranking / hazard in words: based on laboratory test data, direct ingestion
[3] = U.S. Pat. No. 4,830,765, cited from earlier work; for swelling of bentonite: 100% glycol fluid; for concentration needed to provide appreciable swelling inhibition on bentonite: in a fluid phase

Molecule | single-dose oral LD50 [2] | toxicity ranking / hazard in words [2] | concentration needed to provide appreciable swelling inhibition on bentonite [3] | further results
C[N+](C)(C)CCO.[Cl-] [Choline Chloride, choline chloride] | – | – | – | swelling inhibition in words [1]: more effective than the inorganic cationic material
OCCOCCO [Diethylene Glycol] | 16-21 gm/KG | – | – | –
OCCO [Ethylene Glycol] | 6-12 gm/KG | most toxic | – | –
CC(O)CO (stereo not drawn) [Propylene Glycol] | 21-34 gm/KG | least toxic | ≥ 50 % by weight | swelling of bentonite [3]: completely prevented
OCCOCCOCCO [Triethylene Glycol] | 16-22 gm/KG | – | – | –
CC(O)COC(C)COC(C)CO (stereo not drawn) [Tripropylene Glycol] | – | – | – | swelling of bentonite [3]: completely prevented
OCC(O)CO [glycerin] | – | – | ≥ 50 % by weight | –
OC[C@@H](O)[C@@H](O)[C@H](O)[C@@H](O)CO [sorbitol] | – | – | ≥ 50 % by weight | –
Butylene Glycol | 23-30 gm/KG | least toxic | – | –
Dipropylene Glycol | ~ 15 gm/KG | – | – | –
